The target of assay [1] is T1, Caspase-7 (Homo sapiens, UniProt P55210).
T1 sequence (P55210 whole entry): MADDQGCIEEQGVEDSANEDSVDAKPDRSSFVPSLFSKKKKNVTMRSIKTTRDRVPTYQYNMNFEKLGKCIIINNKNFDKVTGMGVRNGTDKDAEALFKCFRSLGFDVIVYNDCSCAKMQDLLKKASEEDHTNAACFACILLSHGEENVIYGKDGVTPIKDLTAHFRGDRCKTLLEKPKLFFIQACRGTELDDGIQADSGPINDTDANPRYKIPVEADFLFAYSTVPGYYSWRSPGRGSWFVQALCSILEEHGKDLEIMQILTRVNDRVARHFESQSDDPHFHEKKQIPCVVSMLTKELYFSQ
Briefly: Inhibitory concentration of compound required against Caspase-7 compared to acylated dipeptides.

Assay [2] deals with T2, Caspase-3 (Homo sapiens, UniProt P42574).
T2 sequence (P42574 whole entry): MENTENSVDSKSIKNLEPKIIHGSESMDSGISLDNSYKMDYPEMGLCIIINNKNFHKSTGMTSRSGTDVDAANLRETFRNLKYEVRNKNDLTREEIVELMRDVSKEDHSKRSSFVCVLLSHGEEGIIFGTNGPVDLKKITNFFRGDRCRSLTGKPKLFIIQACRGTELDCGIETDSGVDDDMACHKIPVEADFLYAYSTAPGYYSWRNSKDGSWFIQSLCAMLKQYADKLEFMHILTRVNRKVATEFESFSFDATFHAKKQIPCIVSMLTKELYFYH
Briefly: Inhibitory concentration of compound required against Caspase-3 compared to acylated dipeptides.

For assay [3], the target named is T3, Caspase-6 (Homo sapiens, UniProt P55212).
T3 sequence (P55212 whole entry): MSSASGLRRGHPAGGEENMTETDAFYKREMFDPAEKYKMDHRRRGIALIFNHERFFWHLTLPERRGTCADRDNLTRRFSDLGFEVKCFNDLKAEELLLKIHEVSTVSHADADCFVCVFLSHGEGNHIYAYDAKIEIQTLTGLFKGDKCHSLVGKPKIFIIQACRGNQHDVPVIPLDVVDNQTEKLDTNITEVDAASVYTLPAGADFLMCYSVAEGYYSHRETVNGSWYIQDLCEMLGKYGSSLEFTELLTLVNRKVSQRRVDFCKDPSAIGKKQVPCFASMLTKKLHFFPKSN
Briefly: Inhibitory concentration of compound required against Caspase-6 compared to acylated dipeptides.

In assay [4] the target is T4, Caspase-8 (Homo sapiens, UniProt Q14790). The experiment in a line: Inhibitory concentration of compound required against Caspase-8 compared to acylated dipeptides.
Assay [5] addresses Caspase-1 (Mus musculus) (UniProt P29452). The experiment in a line: Inhibitory concentration of compound required against Caspase-1 compared to acylated dipeptides.
Assay [6] addresses T1, Caspase-7. The experiment in a line: Inhibitory concentration against caspase-7.
Assay [7] addresses T3, Caspase-6. The experiment in a line: Inhibitory concentration required against caspase-6.
Assay [8] addresses T4, Caspase-8. Briefly: Inhibitory concentration against caspase-8.
The target of assay [9] is T2, Caspase-3. Briefly: Inhibitory concentration against caspase-3.
In assay [10] the target is Caspase-1 (Mus musculus) (UniProt P29452).

The values below come from ChEMBL document CHEMBL1134914, “Acyl dipeptides as reversible caspase inhibitors. Part 1: initial lead optimization” (Bioorg Med Chem Lett, 2002).

T4 sequence (Q14790 217-374 limits assumed): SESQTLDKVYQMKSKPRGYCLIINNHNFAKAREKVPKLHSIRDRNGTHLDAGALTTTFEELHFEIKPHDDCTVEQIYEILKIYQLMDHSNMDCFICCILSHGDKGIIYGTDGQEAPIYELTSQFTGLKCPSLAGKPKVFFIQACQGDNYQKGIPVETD
T4 sequence (Q14790 385-479 limits assumed): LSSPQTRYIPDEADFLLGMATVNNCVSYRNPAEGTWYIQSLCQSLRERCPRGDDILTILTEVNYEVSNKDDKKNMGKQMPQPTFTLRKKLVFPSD
Sequence of Caspase-1 (Mus musculus) (P29452 whole entry, looked up): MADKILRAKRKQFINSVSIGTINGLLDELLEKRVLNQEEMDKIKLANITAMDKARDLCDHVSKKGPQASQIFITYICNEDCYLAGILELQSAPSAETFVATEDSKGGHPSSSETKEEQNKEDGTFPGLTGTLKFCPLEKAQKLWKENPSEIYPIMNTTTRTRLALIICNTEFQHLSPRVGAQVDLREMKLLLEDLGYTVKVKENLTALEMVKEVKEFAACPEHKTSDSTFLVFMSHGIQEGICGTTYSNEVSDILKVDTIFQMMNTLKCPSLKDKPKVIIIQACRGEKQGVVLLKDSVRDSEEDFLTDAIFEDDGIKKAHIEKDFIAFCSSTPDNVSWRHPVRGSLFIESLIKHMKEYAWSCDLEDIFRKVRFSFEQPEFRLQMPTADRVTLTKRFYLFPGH

Usually IC50 stands for the point on the concentration scale where inhibition reaches its midpoint. A low value points to inhibition by little substance. `CC(=O)N[C@@H](C(=O)O)C(=O)N[C@@H](CCC(=O)O)C(=O)N[C@H](C(=O)N[C@H]1CC(=O)OC1O)C(C)C` (some centres undefined): the 50% inhibitory concentration (IC50) came to 0.01 µM on Caspase-7 [1]; 0.0035 µM against Caspase-3 [2]; 0.01 µM against Caspase-6 [3]; 0.08 µM against Caspase-8 [4]; 0.05 µM against Caspase-1 (Mus musculus) [5].
As for `CC(C)C[C@H](NC(=O)[C@H](CCC(=O)O)NC(=O)OCc1ccccc1)C(=O)N[C@H]1CC(=O)OC1O` (some centres undefined), the 50% inhibitory concentration (IC50) worked out at 0.01 µM at Caspase-7 [1], 0.0023 µM against Caspase-3 [2], 0.03 µM against Caspase-8 [4] and 0.0065 µM against Caspase-1 (Mus musculus) [5].
As for `CC(C)C[C@H](NC(=O)CCc1cccc2ccccc12)C(=O)N[C@H]1CC(=O)OC1O` (some centres undefined), the half-inhibitory concentration (IC50) against Caspase-7 [6] turned out to be 8.77 µM; on Caspase-6 [7], 4.18 µM; on Caspase-8 [8] it was 12.2 µM; on Caspase-3 [9] it was 1.59 µM; against Caspase-1 (Mus musculus) [10] it was 1.86 µM.
As for `CC(C)C[C@H](NC(=O)COc1ccccc1OCc1ccccc1)C(=O)N[C@H]1CC(=O)OC1O` (some centres undefined), the IC50 on Caspase-7 [6] came to 2.2 µM; against Caspase-6 [7] it was 9.75 µM; against Caspase-8 [8], 4.34 µM; against Caspase-3 [9], 0.222 µM; against Caspase-1 (Mus musculus) [10], 2.4 µM.
Regarding `CC(C)C[C@H](NC(=O)COc1ccccc1-c1ccccc1)C(=O)N[C@H]1CC(=O)OC1O` (some centres undefined), the half-maximal inhibitory concentration (IC50) against Caspase-7 [6] was found to be 2.02 µM; on Caspase-6 [7] it was 0.717 µM; against Caspase-8 [8] it was 1.71 µM; against Caspase-3 [9], 0.095 µM; at Caspase-1 (Mus musculus) [10] it was 0.636 µM.
Turning to `CC(C)C[C@H](NC(=O)COc1ccc2ccccc2c1)C(=O)N[C@H]1CC(=O)OC1O` (some centres undefined), the IC50 stood at 8.87 µM at Caspase-7 [6]; 8.87 µM on Caspase-7 [1]; 0.94 µM on Caspase-3 [2]; 18.6 µM against Caspase-6 [7]; 18.6 µM at Caspase-6 [3]; 10 µM against Caspase-8 [4]. Besides, the concentration for half-maximal inhibition (IC50) against Caspase-8 [8] was over 10 µM; against Caspase-3 [9], 0.944 µM; against Caspase-1 (Mus musculus) [10], 10 µM; at Caspase-1 (Mus musculus) [5] it was 10 µM.
Consider `CC(C)C[C@H](NC(=O)CCOc1ccccc1)C(=O)N[C@H]1CC(=O)OC1O` (some centres undefined), for which the 50% inhibitory concentration (IC50) was 6.04 µM against Caspase-7 [6]; over 50 µM at Caspase-6 [7]; over 10 µM against Caspase-8 [8]; 0.419 µM against Caspase-3 [9]; 9.42 µM against Caspase-1 (Mus musculus) [10].
Regarding `CC(C)C[C@H](NC(=O)CC(=O)c1ccc2ccccc2c1)C(=O)N[C@H]1CC(=O)OC1O` (some centres undefined), the IC50 at Caspase-7 [6] is 7.43 µM; against Caspase-6 [7], 10.3 µM; at Caspase-8 [8] it was 5.23 µM; against Caspase-3 [9], 1.42 µM; on Caspase-1 (Mus musculus) [10], 0.543 µM.
For the compound `CC(C)C[C@H](NC(=O)Cc1ccc(-c2ccccc2)cc1)C(=O)N[C@H]1CC(=O)OC1O` (some centres undefined), the concentration for half-maximal inhibition (IC50) was over 10 µM on Caspase-7 [1]; over 10 µM at Caspase-6 [7]; over 10 µM on Caspase-8 [8]; 5.06 µM against Caspase-3 [9]; 7.43 µM against Caspase-1 (Mus musculus) [10].
For `CC(C)C[C@H](NC(=O)CCCc1ccc2ccccc2c1)C(=O)N[C@H]1CC(=O)OC1O` (some centres undefined), the half-maximal inhibitory concentration (IC50) on Caspase-7 [6] was 18.2 µM; on Caspase-6 [7], 14.5 µM; against Caspase-8 [8] it was over 50 µM; against Caspase-3 [9] it was 2.76 µM; against Caspase-1 (Mus musculus) [10], 1.8 µM.
As to `CC(C)C[C@H](NC(=O)COc1ccccc1Cc1ccccc1)C(=O)N[C@H]1CC(=O)OC1O` (some centres undefined), the half-maximal inhibitory concentration (IC50) against Caspase-7 [6] amounted to 3.36 µM; at Caspase-6 [7], 10.1 µM; at Caspase-8 [8], 6.05 µM; at Caspase-3 [9], 0.49 µM; against Caspase-1 (Mus musculus) [10], 0.521 µM.
As to `CC(C)C[C@H](NC(=O)[C@H](Cc1ccccc1)NC(=O)OCc1ccccc1)C(=O)N[C@H]1CC(=O)OC1O` (some centres undefined), the IC50 turned out to be 0.68 µM against Caspase-7 [1]; 0.137 µM against Caspase-3 [2]; 2.53 µM against Caspase-6 [3]; 8.7 µM at Caspase-8 [4]; 0.043 µM against Caspase-1 (Mus musculus) [5].
Take `CC(C)C[C@H](NC(=O)COc1cccc2ncccc12)C(=O)N[C@H]1CC(=O)OC1O` (some centres undefined): the concentration for half-maximal inhibition (IC50) against Caspase-7 [6] was 3.85 µM; at Caspase-6 [7], over 50 µM; on Caspase-8 [8] it was 4.02 µM; against Caspase-3 [9], 0.412 µM; against Caspase-1 (Mus musculus) [10], 5.25 µM.
For the compound `CC(C)C[C@H](NC(=O)CCSc1ccc2ccccc2c1)C(=O)N[C@H]1CC(=O)OC1O` (some centres undefined), the IC50 is 5.89 µM against Caspase-7 [6]; 1.62 µM on Caspase-6 [7]; 15 µM against Caspase-8 [8]; 0.837 µM against Caspase-3 [9]; 0.611 µM on Caspase-1 (Mus musculus) [10].
As to `CC(C)C[C@H](NC(=O)CC(=O)c1cccc2ccccc12)C(=O)N[C@H]1CC(=O)OC1O` (some centres undefined), the IC50 against Caspase-7 [6] turned out to be 11.3 µM; on Caspase-6 [7], 11.8 µM; against Caspase-8 [8] it was 11.2 µM; at Caspase-3 [9] it was 0.967 µM; at Caspase-1 (Mus musculus) [10] it was 0.408 µM.
For `CC(C)C[C@H](NC(=O)COc1ccc(Cc2ccccc2)cc1)C(=O)N[C@H]1CC(=O)OC1O` (some centres undefined) the same measures were 4.41 µM, 18.9 µM, 4.72 µM, 0.346 µM and 1.8 µM.
`CC(C)C[C@H](NC(=O)CCOc1ccc2ccccc2c1)C(=O)N[C@H]1CC(=O)OC1O` (some centres undefined): the IC50 came to 9.65 µM on Caspase-7 [6]; 5.9 µM against Caspase-6 [7]; 15.2 µM at Caspase-8 [8]; 0.91 µM on Caspase-3 [9]; 1.32 µM against Caspase-1 (Mus musculus) [10].
With `CC(C)C[C@H](NC(=O)COc1cccc2c1CCCC2)C(=O)N[C@H]1CC(=O)OC1O` (some centres undefined), the 50% inhibitory concentration (IC50) at Caspase-7 [6] came out at 2.74 µM; on Caspase-6 [7], 11.8 µM; against Caspase-8 [8], 1.75 µM; at Caspase-3 [9], 0.324 µM; on Caspase-1 (Mus musculus) [10] it was 1.81 µM.
Turning to `CC(C)C[C@H](Nc1ccccc1)C(=O)N[C@H]1CC(=O)OC1O` (some centres undefined), the IC50 is over 10 µM against Caspase-7 [6]; over 50 µM on Caspase-6 [7]; over 10 µM against Caspase-8 [8]; 3.4 µM on Caspase-3 [9]; over 10 µM against Caspase-1 (Mus musculus) [10].
